Source: publication PMC5558795 (Antiviral research, 2017)
“Also recorded” adds a separate entry of the source.

Legend:
Furin = Furin (Homo sapiens, UniProt P09958); experiment: Fluorescent peptide; assay type: biochemical; conditions: read-out: In vitro IC50, Furin; 20 nM enzyme, 20 μM Pyr-RTKR-AMC
Fetal human NPCs = assay type: cell-based
[1] = test system: ZIKV (Asian strain, FSS13025); experiment: ZIKV infection of human fetal neural progenitor cells; assay type: cell-based, Zika virus; conditions: compound up to 100 μM; for Inhibition of ZIKV infection of hfNPCs (in words): MOI 0.1, 4 days; for Cytotoxicity in hfNPCs (in words): Fig. 7A
[2] = parameters: species or system mice; conditions: mouse, in vivo, ip, 10 mg/kg
ZIKV NS2B-NS3pro = ZIKV NS2B-NS3pro (Zika virus, UniProt A0A024B7W1); experiment: Fluorescent peptide; assay type: biochemical; conditions: read-out: IC50, ZIKV cleavage activity; Fig. 4A

Furin, sequence (P09958 108-794): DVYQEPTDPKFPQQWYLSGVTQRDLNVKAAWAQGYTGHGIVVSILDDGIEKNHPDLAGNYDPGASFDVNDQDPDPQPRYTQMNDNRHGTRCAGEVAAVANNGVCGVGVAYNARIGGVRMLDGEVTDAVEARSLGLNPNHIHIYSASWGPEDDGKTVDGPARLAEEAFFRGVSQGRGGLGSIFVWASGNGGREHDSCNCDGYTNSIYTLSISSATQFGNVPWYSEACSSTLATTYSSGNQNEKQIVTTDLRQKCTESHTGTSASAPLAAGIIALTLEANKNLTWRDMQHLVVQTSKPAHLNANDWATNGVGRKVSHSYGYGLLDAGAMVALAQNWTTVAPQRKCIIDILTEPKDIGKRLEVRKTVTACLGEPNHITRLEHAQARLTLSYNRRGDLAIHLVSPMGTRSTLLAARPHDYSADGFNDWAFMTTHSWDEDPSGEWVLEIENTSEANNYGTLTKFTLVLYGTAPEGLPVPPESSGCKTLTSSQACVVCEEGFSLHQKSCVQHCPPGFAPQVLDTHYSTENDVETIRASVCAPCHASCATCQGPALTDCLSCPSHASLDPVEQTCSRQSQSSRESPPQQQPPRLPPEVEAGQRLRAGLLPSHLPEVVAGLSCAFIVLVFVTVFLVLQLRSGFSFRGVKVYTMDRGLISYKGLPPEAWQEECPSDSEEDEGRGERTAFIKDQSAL

Compound | IC50 (Furin) | Cytotoxicity (TC50) (Fetal human NPCs) | Inhibition of ZIKV infection of hfNPCs (in words) [1] | Cytotoxicity in hfNPCs (in words) [1] | Plasma half-life [2] | IC50 (ZIKV NS2B-NS3pro)
Clc1ccc(-c2nn3c(COc4cccc(OCc5nnc6sc(-c7ccc(Cl)cc7)nn56)c4)nnc3s2)cc1 [NSC716903] | > 100 µM | 127.8 µM | little or no inhibition | more cytotoxic | – | –
Clc1ccc(-c2nn3c(COc4cc(Cl)c(OCc5nnc6sc(-c7ccc(Cl)cc7)nn56)cc4Cl)nnc3s2)cc1 [NSC716897] | > 100 µM | 178.4 µM | – | – | – | –
CC(=O)C(N=Nc1ccc(S(=O)(=O)Nc2ccccn2)cc1)C(=O)Nc1ccc(Cl)cc1 (stereo not drawn) [NSC134189] | > 100 µM | 132.3 µM | – | – | – | –
Clc1cc(OCc2nnc3sc(Cc4ccccc4)nn23)c(Cl)cc1OCc1nnc2sc(Cc3ccccc3)nn12 [NSC716898] | > 100 µM | 235.8 µM | – | – | – | –
Clc1nc2n[nH]nc2nc1Cl [NSC157058] | > 100 µM | 257.4 µM | – | without demonstrating significant cytotoxicity; also recorded: without significant cellular toxicity | ~ 20 min | –
Fc1cc(C2=Nn3c(COc4ccc(Cl)cc4Cl)nnc3S/C2=C\c2ccc(-c3ccc(Cl)cc3)o2)c(Cl)cc1Cl [NSC719147] | > 100 µM | 160.3 µM | – | – | – | –
aprotinin | – | – | – | – | – | ~0.07 µM
Nc1cc(N)c(N=Nc2ccc(S(=O)(=O)Nc3nccs3)cc2)cc1N=Nc1ccc(S(=O)(=O)Nc2nccs2)cc1 [NSC86314] | > 100 µM | 212.5 µM | little or no inhibition | more cytotoxic | – | –
